Results: patent US20230115907A1, “HETEROCYCLIC COMPOUND AND PHARMACEUTICAL COMPOSITION, PREPARATION METHOD, INTERMEDIATE AND USE THEREOF” (EVOPOINT BIOSCIENCES CO., LTD., priority 2019, published 2023)
Each block holds one compound with its values, some of them ahead of it.

What was measured:
HCC70 cells = assay: Inhibition of cell proliferation, CellTiter-Glo, HCC70; format: cell-based; conditions: Homo sapiens, HCC70, 72 h
Procedure: (§1) The compounds were each prepared with 100% DMSO into 10 mM mother liquor.
(§2) HCC70 cells and OVCAR3 cells were digested and counted. Cells were diluted to an appropriate concentration according to cell density. 100 μL of cells were added to each well of a 96-well plate. Medium wells served as blank control (Min). The cells were incubated overnight in an incubator at 37° C./5% CO2.
(§3) A 200-fold stock solution of a compound was prepared with DMSO, and the compound was diluted with growth medium to a 3-fold stock solution, i.e., […] of each of 200-fold stock solutions of compound at different concentrations was added to 197 μL of medium. 50 μL of diluted compound was added to each well and the mixture was incubated at 37° C./5% CO2 for 72 h.
(§4) The 96-well plate was equilibrated to room temperature before detection. 40 μL of CellTiter-Glo solution was added to each well. The mixture was mixed for 2 min using a horizontal shaker to induce cell lysis. The mixture was incubated at room temperature for 60 min to stabilize […] signals. Fluorescence values were read on ENVISION.
(§5) (1) Data was analyzed by GraphPad Prism 5
(§6) (2) % inhibition rate=(maximum signal−compound signal)/(maximum signal−minimum signal)×100
(§7) (3) Maximum signal: signal of DMSO well
(§8) (4) Minimum signal: signal of medium well
(§9) The effect of SZ-015200, SZ-015256 and SZ-015268 on cell proliferation after incubation with HCC70, OVCAR-3, HCT116 and HCC1806 cells for 3 days was detected according to the method described in Efficacy Example 2, and the results are shown in Table 3.

OVCAR3 cells = assay: Inhibition of cell proliferation, CellTiter-Glo, OVCAR3; format: cell-based; conditions: Homo sapiens, OVCAR-3, 72 h
Procedure: as §1, §2, §3, §4, §5, §6, §7, §8, §9

CDK7/Cyclin H/MAT1 = CDK7/Cyclin H/MAT1 (Homo sapiens, UniProt P50613); assay: CDK7 inhibition, mobility shift assay
Chain of CDK7/Cyclin H/MAT1 (P50613 whole entry): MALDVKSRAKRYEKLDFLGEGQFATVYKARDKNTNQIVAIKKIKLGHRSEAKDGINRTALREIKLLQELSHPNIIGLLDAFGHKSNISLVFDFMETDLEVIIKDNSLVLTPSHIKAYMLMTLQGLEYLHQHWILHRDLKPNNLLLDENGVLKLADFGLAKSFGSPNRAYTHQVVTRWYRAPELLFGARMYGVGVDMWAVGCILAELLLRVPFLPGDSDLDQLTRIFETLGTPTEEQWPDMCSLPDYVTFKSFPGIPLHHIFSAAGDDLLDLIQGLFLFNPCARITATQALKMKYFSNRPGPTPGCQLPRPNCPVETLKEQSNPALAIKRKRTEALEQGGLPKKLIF
Chain of CDK7/Cyclin H/MAT1 (P51946 whole entry partner): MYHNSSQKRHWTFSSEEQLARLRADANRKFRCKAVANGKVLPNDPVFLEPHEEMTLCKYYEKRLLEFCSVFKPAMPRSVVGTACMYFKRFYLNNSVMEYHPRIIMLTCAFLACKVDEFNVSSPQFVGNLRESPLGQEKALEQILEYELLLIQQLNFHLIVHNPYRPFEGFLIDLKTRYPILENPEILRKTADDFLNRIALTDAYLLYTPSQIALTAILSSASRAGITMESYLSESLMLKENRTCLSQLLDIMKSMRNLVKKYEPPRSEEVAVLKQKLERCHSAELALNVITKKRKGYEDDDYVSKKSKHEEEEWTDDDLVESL
Chain of CDK7/Cyclin H/MAT1 (P51948 whole entry partner): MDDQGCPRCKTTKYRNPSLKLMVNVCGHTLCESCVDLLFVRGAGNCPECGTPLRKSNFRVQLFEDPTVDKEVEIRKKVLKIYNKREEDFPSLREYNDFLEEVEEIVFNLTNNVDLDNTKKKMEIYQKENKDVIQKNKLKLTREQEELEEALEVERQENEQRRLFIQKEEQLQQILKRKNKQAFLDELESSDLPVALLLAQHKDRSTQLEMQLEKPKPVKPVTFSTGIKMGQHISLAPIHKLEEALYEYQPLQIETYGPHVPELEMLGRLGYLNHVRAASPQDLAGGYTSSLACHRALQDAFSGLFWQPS

HCT116 cells = assay: Inhibition of cell proliferation, CellTiter-Glo, HCT116; format: cell-based; conditions: Homo sapiens, HCT-116, 72 h; Efficacy Example 3 (Table 3), incubation for 3 days
Procedure: as §2, §3, §4, §6, §9

HCC1806 cells = assay: Inhibition of cell proliferation, CellTiter-Glo, HCC1806; format: cell-based; conditions: Homo sapiens, HCC1806, 72 h; Efficacy Example 3 (Table 3), incubation for 3 days
Procedure: as §2, §3, §4, §6, §9

[1] = In vivo pharmacokinetics after intragastric administration in mice; conditions: single intragastric administration, 20 mg/kg; for AUC(0-inf) / AUC(0-t) / Cmax / Tmax / half-life: male, ICR, mouse, po, plasma; for Cmax and AUC compared with the control compound SZ-015200: in words
Procedure: (§10) Male 1CR mice were divided into different groups with 3 mice in each group, and single intragastric administration was conducted for each group. The compounds were each formulated with 10% DMSO/10% Solutol/80% (2000 Captisol) to reach an appropriate concentration and then administered intragastrically at 20 mg/kg. Blood was taken 5 min, 15 min, 30 min, 1 h, 2 h, 4 h, 6 h, 8 h and 24 h after administration, and then subjected to EDTA-K2 anticoagulation. The concentration of the compound in the plasma was quantitatively detected by an LC-MS/MS method.

[2] = In vivo pharmacokinetics after intragastric administration in rats; set-up: species or system SD rats; conditions: single intragastric administration, 40 mg/kg; for AUC(0-inf) / AUC(0-t) / Cmax / Tmax / half-life: male, SD, rat, po, plasma; for Cmax and AUC compared with the control compound SZ-015200: in words
Procedure: as §10, with “SD rats” for “1CR mice”, “rats” for “mice”, “(20%” for “(2000”, “40” for “20”

[3] = tested on: human colon cancer cells HCT116 xenograft tumor; assay: In vivo efficacy in subcutaneous xenograft tumor model of human colon cancer cells HCT116; set-up: species or system BALB/c nude mice; conditions: for Tumor inhibition rate (TGI): day 21; for % proliferation percentage of tumor volume (Day 21 after grouping) / Tumor volume (day 21 after grouping): mean value ± standard error; for Effect on inhibiting tumor proliferation compared with the control compound SZ-015200 (in words): HCT116 xenograft, p.o. QD × 21 days; for Anti-tumor effect (in words): SZ-015256: 25 mg/kg and 15 mg/kg treatment groups, SZ-015268 and SZ-015200: 25 mg/kg treatment group
Procedure: HCT116 tumor cells used in this test were purchased from ATCC. HCT116 tumor cells were cultured in McCoy's 5a medium containing inactivated 10% fetal bovine serum, 100 U/mL penicillin, 100 μg/mL streptomycin and 2 mM glutamine in an incubator at 37° C./5% CO2. The cells were divided and transferred to other bottles every 3 to 4 days for passaging when the culture bottle was full of cells. The tumor cells in the logarithmic growth phase were used for tumor seeding in vivo.
HCT116 tumor cells resuspended in serum-free McCoy's 5a culture solution were seeded subcutaneously into the right costal part of male BALB/c nude mice at 5×10^6/0.1 mL. When the tumor grew to 101 mm^3, animals with uniform tumor volume were selected and divided into groups with 8 animals in each group for administration, and the specific administration regimens are shown in Table 6 below.
Tumor volume: the long and short diameters of the tumor were measured twice every week using a vernier caliper for calculating the tumor volume, and the calculation formula was:
volume=0.5×long diameter×short diameter^2.
[…]=mean value of relative tumor volume of treatment group/mean value of relative tumor volume of control group×100
Tumor growth inhibition rate(TGI,%)=(1−T/C)×100
Statistical analysis between groups was performed for tumor volume using One-Way ANOVA test, and a significant difference was considered to be present when p<0.05.

[4] = Efficacy Example 2 (Table 2), 72 h incubation
[5] = Efficacy Example 3 (Table 3), incubation for 3 days

SMILES: Cc1cc(NC2CCN(C(=O)O[C@H]3CCN(C(=O)/C=C/CN(C)C)C3)CC2)c2ncn(C(C)C)c2n1 [SZ-015095, (S,E)-1-(4-(dimethylamino)but-2-enoyl)pyrrolidin-3-yl 4-((3-isopropyl-5-methyl-3H-imidazo[4,5-b]pyridin-7-yl)amino)piperidine-1-carboxylate]
IC50 (HCC70 cells; [4]): 479 nM
IC50 (OVCAR3 cells; [4]): 138 nM
IC50 (CDK7/Cyclin H/MAT1): 128 nM

SMILES: Cc1cc2c(ncn2C(C)C)c(NC2CCN(C(=O)O[C@H]3CCN(C(=O)/C=C/CN(C)C)C3)CC2)n1 [SZ-015272, (S,E)-1-(4-(dimethylamino)but-2-enoyl)pyrrolidin-3-yl 4-((1-isopropyl-6-methyl-1H-imidazo[4,5-c]pyridin-4-yl)amino)piperidine-1-carboxylate]
IC50 (HCC70 cells; [4]): 948 nM
IC50 (OVCAR3 cells; [4]): 460 nM
IC50 (CDK7/Cyclin H/MAT1): 278 nM

SMILES: Cc1cc(NC2CCN(C(=O)O[C@H]3CCN(C(=O)/C=C/CN(C)C)C3)CC2)c2ncc(C(C)C)n2n1 [SZ-015273, (S,E)-1-(4-(dimethylamino)but-2-enoyl)pyrrolidin-3-yl 4-((3-isopropyl-6-methylimidazo[1,2-b]pyridazin-8-yl)amino)piperidin-1-carboxylate]
IC50 (HCC70 cells; [4]): 291 nM
IC50 (OVCAR3 cells; [4]): 31.9 nM
IC50 (CDK7/Cyclin H/MAT1): 44.5 nM

SMILES: Cc1cn2c(C(C)C)cnc2c(NC2CCN(C(=O)O[C@H]3CCN(C(=O)/C=C/CN(C)C)C3)CC2)n1 [SZ-015274]
IC50 (HCC70 cells; [4]): 187 nM
IC50 (OVCAR3 cells; [4]): 151 nM
IC50 (CDK7/Cyclin H/MAT1): 197 nM

SMILES: CC(C)c1cn2c(C(C)C)cnc2c(NC2CCN(C(=O)O[C@H]3CCN(C(=O)/C=C/CN(C)C)C3)CC2)n1 [SZ-015342, (S,E)-1-(4-(dimethylamino)but-2-enoyl)pyrrolidin-3-yl 4-((3,6-diisopropylimidazo[1,2-a]pyrazin-8-yl)amino)piperidine-1-carboxylate]
IC50 (HCC70 cells; [4]): 419 nM
IC50 (OVCAR3 cells; [4]): 204 nM

SMILES: CC(C)Oc1nc(NC2CCN(C(=O)O[C@H]3CCN(C(=O)/C=C/CN(C)C)C3)CC2)c2ncc(C(C)C)n2n1 [SZ-015346, (S,E)-1-(4-(dimethylamino)but-2-enoyl)pyrrolidin-3-yl 4-((2-isopropoxy-7-isopropylimidazo[2,1-f][1,2,4]triazin-4-yl)amino)piperidine-1-carboxylate]
IC50 (HCC70 cells; [4]): 140 nM
IC50 (OVCAR3 cells; [4]): 48.8 nM

Continued, in another order:

IC50 (OVCAR3 cells; [4]): 75.1 nM
IC50 (OVCAR3 cells; [5]): 45.3 nM
IC50 (HCT116 cells): 25.3 nM
IC50 (HCC1806 cells): 44.5 nM
AUC(0-inf) [1]: 6380 ng·h/mL
AUC(0-t) [1]: 6260 ng·h/mL
Cmax [1]: 3380 ng/mL
Tmax [1]: 0.5 h
half-life [1]: 1.48 h
Cmax and AUC compared with the control compound SZ-015200 [1]: significantly higher
AUC(0-inf) [2]: 7880 ng·h/mL
AUC(0-t) [2]: 7830 ng·h/mL
Cmax [2]: 783 ng/mL
Tmax [2]: 4.67 h
half-life [2]: 2.99 h
IC50 (CDK7/Cyclin H/MAT1): 54.3 nM
SMILES: Cc1nc(NC2CCN(C(=O)O[C@H]3CCN(C(=O)/C=C/CN(C)C)C3)CC2)n2ncc(C(C)C)c2n1 [SZ-015256, (S,E)-1-(4-(dimethylamino)but-2-enoyl)pyrrolidin-3-yl 4-((8-isopropyl-2-methylpyrazolo[1,5-a][1,3,5]triazin-4-yl)amino)piperidine-1-carboxylate]
IC50 (HCC70 cells; [4]): 175 nM
IC50 (HCC70 cells; [5]): 50.9 nM
Cmax and AUC compared with the control compound SZ-015200 [2]: The results show that compared with the control compound SZ-015200, the Cmax and the AUC of SZ-015256 and SZ-015268 in rats after single intragastric administration were significantly higher, which indicates that SZ-015256 and SZ-015268 have better pharmacokinetic properties.
Tumor inhibition rate (TGI) ([3]; 15 mg/kg p.o. QD × 21 days): 61.6%
% proliferation percentage of tumor volume (Day 21 after grouping) ([3]; 15 mg/kg p.o. QD × 21 days): 407 ± 40%
Tumor volume (day 21 after grouping) ([3]; 15 mg/kg p.o. QD × 21 days): 402 ± 42 mm^3
Tumor inhibition rate (TGI) ([3]; 25 mg/kg p.o. QD × 21 days): 81.9%
% proliferation percentage of tumor volume (Day 21 after grouping) ([3]; 25 mg/kg p.o. QD × 21 days): 192 ± 38%
Tumor volume (day 21 after grouping) ([3]; 25 mg/kg p.o. QD × 21 days): 201 ± 43 mm^3
Effect on inhibiting tumor proliferation compared with the control compound SZ-015200 (in words) [3]: stronger effect on inhibiting tumor proliferation
Anti-tumor effect (in words) [3]: significant anti-tumor effect

IC50 (OVCAR3 cells; [4]): 29.9 nM
IC50 (OVCAR3 cells; [5]): 80.6 nM
IC50 (HCT116 cells): 12.5 nM
IC50 (HCC1806 cells): 61.5 nM
AUC(0-inf) [1]: 3150 ng·h/mL
AUC(0-t) [1]: 3100 ng·h/mL
Cmax [1]: 1540 ng/mL
Tmax [1]: 0.42 h
half-life [1]: 1.39 h
Cmax and AUC compared with the control compound SZ-015200 [1]: not lower
AUC(0-inf) [2]: 4510 ng·h/mL
AUC(0-t) [2]: 4450 ng·h/mL
Cmax [2]: 543 ng/mL
Tmax [2]: 4 h
half-life [2]: 3.92 h
SMILES: Cc1nc(NC2CCN(C(=O)O[C@H]3CCN(C(=O)/C=C/CN(C)C)C3)CC2)c2ncc(C(C)C)n2n1 [SZ-015268, (S,E)-1-(4-(dimethylamino)but-2-enoyl)pyrrolidin-3-yl 4-((7-isopropyl-2-methylimidazo[2,1-f][1,2,4]triazin-4-yl)amino)piperidin-1-carboxylate]
IC50 (HCC70 cells; [4]): 57.5 nM
IC50 (HCC70 cells; [5]): 33 nM
Cmax and AUC compared with the control compound SZ-015200 [2]: The results show that compared with the control compound SZ-015200, the Cmax and the AUC of SZ-015256 and SZ-015268 in rats after single intragastric administration were significantly higher, which indicates that SZ-015256 and SZ-015268 have better pharmacokinetic properties.
Tumor inhibition rate (TGI) ([3]; 25 mg/kg p.o. QD × 21 days): 84.3%
% proliferation percentage of tumor volume (Day 21 after grouping) ([3]; 25 mg/kg p.o. QD × 21 days): 167 ± 39%
Tumor volume (day 21 after grouping) ([3]; 25 mg/kg p.o. QD × 21 days): 172 ± 41 mm^3
Effect on inhibiting tumor proliferation compared with the control compound SZ-015200 (in words) [3]: stronger effect on inhibiting tumor proliferation
Anti-tumor effect (in words) [3]: significant anti-tumor effect

IC50 (CDK7/Cyclin H/MAT1): 23.6 nM
SMILES: Cc1nc(NC2CCN(C(=O)O[C@H]3CCN(C(=O)/C=C/CN(C)C)C3)CC2)c2ncc(C(C)C)n2n1 [SZ-0015268]

IC50 (OVCAR3 cells; [4]): 29.7 nM
SMILES: CC(C)c1cnc2c(NC3CCN(C(=O)O[C@H]4CCN(C(=O)/C=C/CN(C)C)C4)CC3)nc(C3CC3)nn12 [SZ-015338, (S,E)-1-(4-(dimethylamino)but-2-enoyl)pyrrolidin-3-yl 4-((2-cyclopropyl-7-isopropylimidazo[2,1-f][1,2,4]triazin-4-yl)amino)piperidine-1-carboxylate]
IC50 (HCC70 cells; [4]): 48.7 nM

IC50 (OVCAR3 cells; [4]): 64.3 nM
SMILES: CC(C)c1nc(NC2CCN(C(=O)O[C@H]3CCN(C(=O)/C=C/CN(C)C)C3)CC2)c2ncc(C(C)C)n2n1 [SZ-015339, (S,E)-1-(4-(dimethylamino)but-2-enoyl)pyrrolidin-3-yl 4-((2,7-diisopropylimidazo[2,1-f][1,2,4]triazin-4-yl)amino)piperidine-1-carboxylate]
IC50 (HCC70 cells; [4]): 54.7 nM
